Earlier results as cited in patent US7749547B2, “Nutritional composition and method for increasing creatine uptake and retention in skeletal muscle, increasing muscle mass and strength, increasing exercise capacity and for aiding recovery following exercise” (priority 2006, dated 2010).

Columns and labels:
[1] = rodents; reduced food intake, enhanced energy expenditure
[2] = supplemented rats
[3] = not given; remark: listed apart in the source
[4] = supplementation
[5] = healthy volunteers

## O=C(O)CCCCC1CCSS1 (stereo not drawn) [ALA, Alpha Lipoic Acid]
[1]
  body weight: profound weight loss
[2]
  age-related changes in mitochondrial function, accumulated oxidative damage and metabolic rate: improved

## [Cr] [Chromium]
clinical
  lean mass: increase lean mass
Combined with exercise
  body fat: reduce body fat
human, in vivo
  high density lipoproteins (HDL): increase high density lipoproteins

## CN(CC(=O)O)C(=N)N [Creatine, N-methyl-N-guanyl Glycine]
[3]; males and females
  high-intensity exercise performance: improved
[3]; supplemental Creatine
  strength and fatigue: improve strength and reduce fatigue
[3]; supplementation
  muscle fiber cross sectional area: increases muscle fiber cross sectional area
[3]; with resistance training, sedentary females and male football players
  strength and fat-free mass: increased strength and fat-free mass over a placebo
[4]
  concentration of Creatine in the muscle: increase the concentration of Creatine in the muscle
  resynthesis of Phosphocreatine: increase in the resynthesis of Phosphocreatine

## Isomalt
[5]
  bowel function and metabolic function: promote healthy bowel function without impairing metabolic function
